Assay results from patent publication US8084649B2, “Herbicides” (Syngenta Crop Protection, inc., priority 2007, dated 2011).

The compounds below were run on Echinochloa crus-galli (ECHCG) (assay: Post-emergence herbicidal activity, glasshouse pot test). Settings: Echinochloa crus-galli, rate 500 g/ha, evaluated after 14 or 15 days, read-out: Post-emergence activity, ECHCG (100=total damage to plant; 0=no damage to plant).
Format: in vivo
In short: (§1)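 Damage rated visually on a 0–100 scale (100 = total damage) 14 or 15 days after spraying. Pots of sterilised standard soil; plants treated post-emergence after 10 days glasshouse cultivation with an aqueous spray from an acetone/Emulsogen EL/N-methylpyrrolidone/dipropylene glycol monomethyl ether/X-77 formulation.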
`CCc1cc(C)cc(C)c1C1=C(O)CC(CCSC)CC1=O` (stereo not drawn) [Compound T13] showed a pest or weed control at 500 g/ha of 90%.
With `CCc1cc(C)cc(CC)c1C1=C(O)CC(CC(C)S(=O)(=O)CC)CC1=O` (stereo not drawn) [Compound T28, 2-(2,6-diethyl-4-methylphenyl)-5-[2-(ethylsulfonyl)propyl]cyclohexane-1,3-dione] the pest or weed control at 500 g/ha was 100%.
Compound `CCc1cc(C)cc(CC)c1C1=C(O)CC(CCSC)CC1=O` (stereo not drawn) [Compound T16] has a pest or weed control at 500 g/ha of 70%.

What follows are compounds tested on Setaria faberi (SETFA) in the same assay as above. Settings: Setaria faberi, rate 500 g/ha, evaluated after 14 or 15 days, read-out: Post-emergence activity, SETFA (100=total damage to plant; 0=no damage to plant).
Format: in vivo
In short: as §1
For `CCc1cc(C)cc(C)c1C1=C(O)CC(CCSC)CC1=O` (stereo not drawn) [Compound T13], the pest or weed control at 500 g/ha was 90%.
In the case of `CCc1cc(C)cc(CC)c1C1=C(O)CC(CC(C)S(=O)(=O)CC)CC1=O` (stereo not drawn) [Compound T28, 2-(2,6-diethyl-4-methylphenyl)-5-[2-(ethylsulfonyl)propyl]cyclohexane-1,3-dione], the pest or weed control at 500 g/ha is reported as 90%.
For `CCc1cc(C)cc(CC)c1C1=C(O)CC(CCSC)CC1=O` (stereo not drawn) [Compound T16], the pest or weed control at 500 g/ha was 90%.

These compounds were tested on Digitaria sanguinalis (DIGSA) in the same assay as above. Settings: Digitaria sanguinalis, rate 500 g/ha, evaluated after 14 or 15 days, read-out: Post-emergence activity, DIGSA (100=total damage to plant; 0=no damage to plant).
Format: in vivo
In short: as §1
Compound `CCc1cc(C)cc(C)c1C1=C(O)CC(CCSC)CC1=O` (stereo not drawn) [Compound T13] has a pest or weed control at 500 g/ha of 100%.
Compound `CCc1cc(C)cc(CC)c1C1=C(O)CC(CC(C)S(=O)(=O)CC)CC1=O` (stereo not drawn) [Compound T28, 2-(2,6-diethyl-4-methylphenyl)-5-[2-(ethylsulfonyl)propyl]cyclohexane-1,3-dione] has a pest or weed control at 500 g/ha of 100%.
`CCc1cc(C)cc(CC)c1C1=C(O)CC(CCSC)CC1=O` (stereo not drawn) [Compound T16] gave a pest or weed control at 500 g/ha of 100%.

These compounds were tested on Lolium perenne (LOLPE) in the same assay as above. Settings: Lolium perenne, rate 500 g/ha, evaluated after 14 or 15 days, read-out: Post-emergence activity, LOLPE (100=total damage to plant; 0=no damage to plant).
Format: in vivo
In short: as §1
Compound `CCc1cc(C)cc(C)c1C1=C(O)CC(CCSC)CC1=O` (stereo not drawn) [Compound T13] has a pest or weed control at 500 g/ha of 80%.
`CCc1cc(C)cc(CC)c1C1=C(O)CC(CC(C)S(=O)(=O)CC)CC1=O` (stereo not drawn) [Compound T28, 2-(2,6-diethyl-4-methylphenyl)-5-[2-(ethylsulfonyl)propyl]cyclohexane-1,3-dione] gave a pest or weed control at 500 g/ha of 80%.
Work on `CCc1cc(C)cc(CC)c1C1=C(O)CC(CCSC)CC1=O` (stereo not drawn) [Compound T16] yielded a pest or weed control at 500 g/ha of 90%.

These compounds were tested on Alopecurus myosuroides (ALOMY) in the same assay as above. Settings: Alopecurus myosuroides, rate 500 g/ha, evaluated after 14 or 15 days, read-out: Post-emergence activity, ALOMY (100=total damage to plant; 0=no damage to plant).
Format: in vivo
In short: as §1
Work on `CCc1cc(C)cc(C)c1C1=C(O)CC(CCSC)CC1=O` (stereo not drawn) [Compound T13] yielded a pest or weed control at 500 g/ha of 90%.
`CCc1cc(C)cc(CC)c1C1=C(O)CC(CC(C)S(=O)(=O)CC)CC1=O` (stereo not drawn) [Compound T28, 2-(2,6-diethyl-4-methylphenyl)-5-[2-(ethylsulfonyl)propyl]cyclohexane-1,3-dione] gave a pest or weed control at 500 g/ha of 90%.
In the case of `CCc1cc(C)cc(CC)c1C1=C(O)CC(CCSC)CC1=O` (stereo not drawn) [Compound T16], the pest or weed control at 500 g/ha is reported as 100%.

These compounds were tested on Avena fatua (AVEFA) in the same assay as above. Settings: Avena fatua, rate 500 g/ha, evaluated after 14 or 15 days, read-out: Post-emergence activity, AVEFA (100=total damage to plant; 0=no damage to plant).
Format: in vivo
In short: as §1
`CCc1cc(C)cc(C)c1C1=C(O)CC(CCSC)CC1=O` (stereo not drawn) [Compound T13] showed a pest or weed control at 500 g/ha of 80%.
Compound `CCc1cc(C)cc(CC)c1C1=C(O)CC(CC(C)S(=O)(=O)CC)CC1=O` (stereo not drawn) [Compound T28, 2-(2,6-diethyl-4-methylphenyl)-5-[2-(ethylsulfonyl)propyl]cyclohexane-1,3-dione] has a pest or weed control at 500 g/ha of 100%.
`CCc1cc(C)cc(CC)c1C1=C(O)CC(CCSC)CC1=O` (stereo not drawn) [Compound T16] gave a pest or weed control at 500 g/ha of 80%.

The compounds below were run on Echinochloa crus-galli (ECHCG) (assay: Pre-emergence herbicidal activity, glasshouse pot test). Settings: Echinochloa crus-galli, 480 h, rate 500 g/ha, evaluated after 20 days, read-out: Pre-emergence activity, ECHCG (100=total damage to plant; 0=no damage to plant).
Format: in vivo
In short: (§2)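 One day after sowing in sterilised soil, pots receive an aqueous spray made from the compound dissolved in acetone and a formulation of emulsifier, N-methylpyrrolidone, glycol ether and X-77 wetter. Injury is assessed 20 days later against untreated expectations, scored from 0 (no damage) to 100.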
`CCc1cc(C)cc(C)c1C1=C(O)CC(CCSC)CC1=O` (stereo not drawn) [Compound T13] showed a pest or weed control at 500 g/ha of 80%.
`CCc1cc(C)cc(CC)c1C1=C(O)CC(CC(C)S(=O)(=O)CC)CC1=O` (stereo not drawn) [Compound T28, 2-(2,6-diethyl-4-methylphenyl)-5-[2-(ethylsulfonyl)propyl]cyclohexane-1,3-dione] gave a pest or weed control at 500 g/ha of 100%.
Work on `CCc1cc(C)cc(CC)c1C1=C(O)CC(CCSC)CC1=O` (stereo not drawn) [Compound T16] yielded a pest or weed control at 500 g/ha of 90%.

Each compound was assayed on Setaria faberi (SETFA) in the same assay as above. Settings: Setaria faberi, 480 h, rate 500 g/ha, evaluated after 20 days, read-out: Pre-emergence activity, SETFA (100=total damage to plant; 0=no damage to plant).
Format: in vivo
In short: as §2
In the case of `CCc1cc(C)cc(C)c1C1=C(O)CC(CCSC)CC1=O` (stereo not drawn) [Compound T13], the pest or weed control at 500 g/ha is reported as 80%.
With `CCc1cc(C)cc(CC)c1C1=C(O)CC(CC(C)S(=O)(=O)CC)CC1=O` (stereo not drawn) [Compound T28, 2-(2,6-diethyl-4-methylphenyl)-5-[2-(ethylsulfonyl)propyl]cyclohexane-1,3-dione] the pest or weed control at 500 g/ha was 100%.
In the case of `CCc1cc(C)cc(CC)c1C1=C(O)CC(CCSC)CC1=O` (stereo not drawn) [Compound T16], the pest or weed control at 500 g/ha is reported as 100%.

These compounds were tested on Digitaria sanguinalis (DIGSA) in the same assay as above. Settings: Digitaria sanguinalis, 480 h, rate 500 g/ha, evaluated after 20 days, read-out: Pre-emergence activity, DIGSA (100=total damage to plant; 0=no damage to plant).
Format: in vivo
In short: as §2
`CCc1cc(C)cc(C)c1C1=C(O)CC(CCSC)CC1=O` (stereo not drawn) [Compound T13] showed a pest or weed control at 500 g/ha of 100%.
In the case of `CCc1cc(C)cc(CC)c1C1=C(O)CC(CC(C)S(=O)(=O)CC)CC1=O` (stereo not drawn) [Compound T28, 2-(2,6-diethyl-4-methylphenyl)-5-[2-(ethylsulfonyl)propyl]cyclohexane-1,3-dione], the pest or weed control at 500 g/ha is reported as 100%.
Work on `CCc1cc(C)cc(CC)c1C1=C(O)CC(CCSC)CC1=O` (stereo not drawn) [Compound T16] yielded a pest or weed control at 500 g/ha of 100%.

These compounds were tested on Lolium perenne (LOLPE) in the same assay as above. Settings: Lolium perenne, 480 h, rate 500 g/ha, evaluated after 20 days, read-out: Pre-emergence activity, LOLPE (100=total damage to plant; 0=no damage to plant).
Format: in vivo
In short: as §2
For `CCc1cc(C)cc(C)c1C1=C(O)CC(CCSC)CC1=O` (stereo not drawn) [Compound T13], the pest or weed control at 500 g/ha was 100%.
`CCc1cc(C)cc(CC)c1C1=C(O)CC(CC(C)S(=O)(=O)CC)CC1=O` (stereo not drawn) [Compound T28, 2-(2,6-diethyl-4-methylphenyl)-5-[2-(ethylsulfonyl)propyl]cyclohexane-1,3-dione] showed a pest or weed control at 500 g/ha of 100%.
`CCc1cc(C)cc(CC)c1C1=C(O)CC(CCSC)CC1=O` (stereo not drawn) [Compound T16] gave a pest or weed control at 500 g/ha of 100%.

Each compound was assayed on Alopecurus myosuroides (ALOMY) in the same assay as above. Settings: Alopecurus myosuroides, 480 h, rate 500 g/ha, evaluated after 20 days, read-out: Pre-emergence activity, ALOMY (100=total damage to plant; 0=no damage to plant).
Format: in vivo
In short: as §2
`CCc1cc(C)cc(C)c1C1=C(O)CC(CCSC)CC1=O` (stereo not drawn) [Compound T13] was tested, and the pest or weed control at 500 g/ha was 100%.
`CCc1cc(C)cc(CC)c1C1=C(O)CC(CC(C)S(=O)(=O)CC)CC1=O` (stereo not drawn) [Compound T28, 2-(2,6-diethyl-4-methylphenyl)-5-[2-(ethylsulfonyl)propyl]cyclohexane-1,3-dione] gave a pest or weed control at 500 g/ha of 70%.
`CCc1cc(C)cc(CC)c1C1=C(O)CC(CCSC)CC1=O` (stereo not drawn) [Compound T16] was tested, and the pest or weed control at 500 g/ha was 90%.

Each compound was assayed on Avena fatua (AVEFA) in the same assay as above. Settings: Avena fatua, 480 h, rate 500 g/ha, evaluated after 20 days, read-out: Pre-emergence activity, AVEFA (100=total damage to plant; 0=no damage to plant).
Format: in vivo
In short: as §2
`CCc1cc(C)cc(C)c1C1=C(O)CC(CCSC)CC1=O` (stereo not drawn) [Compound T13] was tested, and the pest or weed control at 500 g/ha was 70%.
With `CCc1cc(C)cc(CC)c1C1=C(O)CC(CC(C)S(=O)(=O)CC)CC1=O` (stereo not drawn) [Compound T28, 2-(2,6-diethyl-4-methylphenyl)-5-[2-(ethylsulfonyl)propyl]cyclohexane-1,3-dione] the pest or weed control at 500 g/ha was 100%.
Work on `CCc1cc(C)cc(CC)c1C1=C(O)CC(CCSC)CC1=O` (stereo not drawn) [Compound T16] yielded a pest or weed control at 500 g/ha of 70%.
